Results: US12440496B2, “Natriuretic peptide receptor a agonists useful for the treatment of cardiometabolic diseases, kidney disease and diabetes” (Merck Sharp & Dohme LLC, priority 2019, dated 2025)
Counter-ions that a name gives are not always drawn.

Target: T1, hNPRA (Homo sapiens, UniProt P16066)
T1 construct: expressed in transfected cells
T1 sequence (P16066 33-1061): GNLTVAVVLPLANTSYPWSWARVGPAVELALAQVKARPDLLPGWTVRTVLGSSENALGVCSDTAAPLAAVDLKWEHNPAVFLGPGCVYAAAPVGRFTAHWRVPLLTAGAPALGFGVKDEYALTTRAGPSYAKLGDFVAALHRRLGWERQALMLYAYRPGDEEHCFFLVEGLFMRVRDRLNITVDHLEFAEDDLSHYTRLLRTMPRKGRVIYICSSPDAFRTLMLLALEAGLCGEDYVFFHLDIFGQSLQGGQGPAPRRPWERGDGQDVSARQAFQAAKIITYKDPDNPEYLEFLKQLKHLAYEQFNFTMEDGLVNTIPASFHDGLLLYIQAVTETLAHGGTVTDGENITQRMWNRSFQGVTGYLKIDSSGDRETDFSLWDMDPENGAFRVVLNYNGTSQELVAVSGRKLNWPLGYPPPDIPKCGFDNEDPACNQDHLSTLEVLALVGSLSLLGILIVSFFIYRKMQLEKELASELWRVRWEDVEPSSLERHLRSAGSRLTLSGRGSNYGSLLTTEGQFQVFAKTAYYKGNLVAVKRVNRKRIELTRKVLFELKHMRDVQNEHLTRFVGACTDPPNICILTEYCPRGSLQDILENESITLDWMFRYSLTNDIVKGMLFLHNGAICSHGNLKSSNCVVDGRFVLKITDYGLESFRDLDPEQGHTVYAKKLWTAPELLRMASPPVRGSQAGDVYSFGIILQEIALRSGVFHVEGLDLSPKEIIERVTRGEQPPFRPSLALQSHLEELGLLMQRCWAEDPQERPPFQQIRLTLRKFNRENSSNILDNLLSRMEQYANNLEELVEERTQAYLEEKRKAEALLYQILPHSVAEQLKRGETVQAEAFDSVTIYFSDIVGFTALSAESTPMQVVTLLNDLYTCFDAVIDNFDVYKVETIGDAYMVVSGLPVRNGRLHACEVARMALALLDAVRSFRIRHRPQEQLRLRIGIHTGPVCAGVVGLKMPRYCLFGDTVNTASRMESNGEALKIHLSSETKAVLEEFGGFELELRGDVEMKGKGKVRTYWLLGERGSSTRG
Assay: NPRA Functional Cell Assay (cGMP HTRF, NPRA HEK JumpIn stable cells)
Type: cell-based
Conditions: cGMP production, 1 hour at 37° C., 10-point dose response
In short: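 cGMP HTRF read-out after 1 hour compound treatment at 37° C. of human NPRA-expressing HEK JumpIn cells, 1500 cells/well, in buffer with phosphodiesterase inhibitors IBMX and RO20 (100 uM each). Signal converted to [cGMP] by calibration curve; EC50s fitted by 4-parameter logistic; 50 nM h-ANP as positive response.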

| Structure (SMILES) | EC50 [nM] |
| --- | --- |
| CC(C)(C)[C@H]1CCc2nc3sc(C(=O)N[C@H](CCN4CCC[C@H](O)[C@H]4CO)c4ccc(-c5ccc(=O)[nH]c5)cc4)cc3cc2C1 (racemic) [Example 31, rac-(6S)-6-tert-butyl-N-[rac-(1R)-1-[4-(6-oxo-1H-pyridin-3-yl)phenyl]-3-[rac-(2R,3S)-3-hydroxy-2-(hydroxymethyl)piperidin-1-ium-1-yl]propyl]-5,6,7,8-tetrahydrothieno[2,3-b]quinoline-2-carboxamide; formate] | 473 |
| CC(C)(C)[C@H]1CCc2nc3sc(C(=O)N[C@H](CCN4CCC(CO)C4)c4ccc(-c5ccc(=O)[nH]c5)cc4)nc3cc2C1 (mixture of isomers) [Example 74, rac-(7S)-7-tert-butyl-N-[rac-(1R)-3-[3-(hydroxymethyl)pyrrolidin-1-yl]-1-[4-(6-oxo-1H-pyridin-3-yl)phenyl]propyl]-5,6,7,8-tetrahydrothiazolo[5,4-b]quinoline-2-carboxamide] | 328 |
| CC(C)(C)[C@H]1CCc2nc3sc(C(=O)N[C@H](CCN4CCC(O)CC4)c4cnc(-c5ccnnc5)c(F)c4)nc3cc2C1 [Example 266, (S)-7-(tert-butyl)-N-((R)-1-(5-fluoro-6-(pyridazin-4-yl)pyridin-3-yl)-3-(4-hydroxypiperidin-1-yl)propyl)-5,6,7,8-tetrahydrothiazolo[5,4-b]quinoline-2-carboxamide] | 142 |
| CC(C)(C)[C@H]1CCc2nc3sc(C(=O)N[C@H](CCN4CCCC4)c4ccccc4)cc3cc2C1 [Example 253, (6S)-6-tert-butyl-N-[(1R)-1-phenyl-3-pyrrolidin-1-ylpropyl]-5,6,7,8-tetrahydrothieno[2,3-b]quinoline-2-carboxamide] | 3220 |
| CNCC[C@@H](NC(=O)c1cc2cc3c(nc2s1)CC[C@H](C(C)(C)C)C3)c1ccc(-c2ccc(=O)[nH]c2)cc1 (racemic) [Example 42, rac-(6S)-6-tert-butyl-N-[rac-(1R)-3-(methylamino)-1-[4-(6-oxo-1H-pyridin-3-yl)phenyl]propyl]-5,6,7,8-tetrahydrothieno[2,3-b]quinoline-2-carboxamide] | 658 |
| CC(C)(C)[C@H]1CCc2nc3sc(C(=O)N[C@H](CCN4CCC(n5ncnn5)CC4)c4ccc(-c5ccc(=O)[nH]c5)cc4)cc3cc2C1 (racemic) [Example 35, rac-(6S)-6-tert-butyl-N-[rac-(1R)-1-[4-(6-oxo-1H-pyridin-3-yl)phenyl]-3-[4-(tetrazol-2-yl)piperidin-1-ium-1-yl]propyl]-5,6,7,8-tetrahydrothieno[2,3-b]quinoline-2-carboxamide;formate] | 535 |
| Cc1n[nH]c(C)c1Oc1ccc([C@@H](CCN2CCC(O)CC2)NC(=O)c2nc3cc4c(nc3s2)CC[C@H](C(C)(C)C)C4)cn1 (racemic) [Example 191, rac-(7S)-7-tert-butyl-N-[rac-(1R)-1-[6-[(3,5-dimethyl-1H-pyrazol-4-yl)oxy]-3-pyridyl]-3-(4-hydroxy-1-piperidyl)propyl]-5,6,7,8-tetrahydrothiazolo[5,4-b]quinoline-2-carboxamide] | 632 |
| CC(C)(C)[C@H]1CCc2nc3sc(C(=O)N[C@H](CCN[C@H]4C[C@@H](O)[C@@H](O)C4)c4ccc(-c5ccc(=O)[nH]c5)cc4)cc3cc2C1 (racemic) [Example 39, [rac-(3R,4S)-3,4-dihydroxycyclopentyl]-[rac-(3R)-3-[4-(6-oxo-1H-pyridin-3-yl)phenyl]-3-[[rac-(6S)-6-tert-butyl-5,6,7,8-tetrahydrothieno[2,3-b]quinoline-2-carbonyl]amino]propyl] ammonium;formate] | 655 |

Results, then the compound that gave them:

| EC50 [nM] | Structure (SMILES) |
| --- | --- |
| 315 | CN1CC(NC(=O)c2cccc([C@@H](CCN3CCC(c4ccc(C(=O)O)cc4)CC3)NC(=O)c3nc4cc5c(nc4s3)CC[C@H](C(C)(C)C)C5)c2)C1 (racemic) [Example 105, 4-[1-[rac-(3R)-3-[3-[(1-methylazetidin-1-ium-3-yl)carbamoyl]phenyl]-3-[rac-(7S)-7-tert-butyl-5,6,7,8-tetrahydrothiazolo [5,4-b]quinoline-2-carbonyl]amino]propyl]-4-piperidyl]benzoic acid; 2,2,2-trifluoroacetate] |
| 1610 | CC(C)(C)[C@H]1CCc2nc3sc(C(=O)N[C@H](CCN4CCC(O)CC4)c4ccc(-c5cc(=O)[nH]c(=O)[nH]5)cc4)nc3cc2C1 (racemic) [Example 182, rac-(7S)-7-tert-butyl-N-[rac-(1R)-1-[4-(2,4-dioxo-1H-pyrimidin-6-yl)phenyl]-3-(4-hydroxy-1-piperidyl)propyl]-5,6,7,8-tetrahydrothiazolo[5,4-b]quinoline-2-carboxamide] |
| 607 | CC(C)(C)[C@H]1CCc2nc3sc(C(=O)N[C@H](CCN4CCC(O)CC4)c4cccc(C(=O)N5CCC6NCCC65)c4)nc3cc2C1 (mixture of isomers) [Example 146, rac-(7S)-7-tert-butyl-N-[rac-(1R)-1-[3-(2,3,3a,5,6,6a-hexahydro-1H-pyrrolo[3,2-b]pyrrole-4-carbonyl)phenyl]-3-(4-hydroxy-1-piperidyl)propyl]-5,6,7,8-tetrahydrothiazolo[5,4-b]quinoline-2-carboxamide] |
| 1450 | CNC(=O)c1cccc([C@@H](CCN(C)C)NC(=O)c2nc3cc4c(nc3s2)CC[C@H](C(C)(C)C)C4)c1 (racemic) [Example 98, rac-(7S)-7-tert-butyl-N-[rac-(1R)-3-(dimethyl-amino)-1-[3-(methylcarbamoyl)phenyl]propyl]-5,6,7,8-tetrahydrothiazolo[5,4-b] quinoline-2-carboxamide] |
| 985 | CC(C)(C)[C@H]1CCc2nc3sc(C(=O)N[C@H](CCN4CCC(O)CC4)c4cccc(NC(=O)C5CCNC5)c4)nc3cc2C1 (mixture of isomers) [Example 118, rac-(7S)-7-tert-butyl-N-[rac-(1R)-3-(4-hydroxy-1-piperidyl)-1-[3-(pyrrolidin-1-ium-3-carbonylamino)phenyl]propyl]-5,6,7,8-tetrahydrothiazolo[5,4-b] quinoline-2-carboxamide; 2,2,2 trifluoroacetate] |
| 158 | CN1CC(NC(=O)c2cccc([C@@H](CCN3CCC(CCO)CC3)NC(=O)c3nc4cc5c(nc4s3)CC[C@H](C(C)(C)C)C5)c2)C1 (racemic) [Example 102, rac-(7S)-7-tert-butyl-N-[rac-(1R)-3-[4-(2-hydroxyethyl)-1-piperidyl]-1-[3-[(1-methylazetidin-1-ium-3-yl)carbamoyl]phenyl]propyl]-5,6,7,8-tetrahydrothiazolo[5,4-b] quinoline-2-carboxamide; 2,2,2-trifluoroacetate] |
| 1610 | CN(C)S(=O)(=O)Nc1ccc([C@@H](CCN2CCNC(=O)CC2)NC(=O)c2nc3cc4c(nc3s2)CC[C@H](C(C)(C)C)C4)cn1 (racemic) [Example 215, rac-(7S)-7-tert-butyl-N-[rac-(1R)-1-[6-(dimethylsulfamoylamino)-3-pyridyl]-3-(5-oxo-1,4-diazepan-1-ium-1-yl)propyl]-5,6,7,8-tetrahydrothiazolo[5,4-b]quinoline-2-carboxamide; 2,2,2-trifluoroacetate] |
| 527 | CN(C)CC[C@@H](NC(=O)c1nc2cc3c(nc2s1)CC[C@H](C(C)(C)C)C3)c1cccc(C(=O)N2CC(C)(O)C2)c1 (racemic) [Example 93, rac-(7S)-7-tert-butyl-N-[rac-(1R)-3-(dimethylamino)-1-[3-(3-hydroxy-3-methyl-azetidine-1-carbonyl)phenyl]propyl]-5,6,7,8-tetrahydrothiazolo[5,4-b] quinoline-2-carboxamide] |
| 218 | CN(C)CC[C@@H](NC(=O)c1cc2cc3c(nc2s1)CC[C@H](C(C)(C)C)C3)c1ccc(-c2ccc(=O)[nH]c2)cc1 (racemic) [Example 25, dimethyl-[rac-(3R)-3-[4-(6-oxo-1H-pyridin-3-yl)phenyl]-3-[{rac-(6S)-6-tert-butyl-5,6,7,8-tetrahydrothieno[2,3-b]quinoline-2-carbonyl]amino]propyl] ammonium;formate] |
| 681 | CC(C)(C)[C@H]1CCc2nc3sc(C(=O)N[C@H](CCN4CCC(O)CC4)c4ccc(-n5ccnc5)cc4)nc3cc2C1 (racemic) [Example 83, rac-(7S)-7-tert-butyl-N-[rac-(1R)-3-(4-hydroxy-piperidin-1-ium-1-yl)-1-(4-imidazol-1-ylphenyl)propyl]-5,6,7,8-tetrahydro-thiazolo[5,4-b] quinoline-2-carboxamide; 2,2,2-trifluoroacetate] |
